Measurements reported in US8729082B2, “Substituted imidazoquinoxalines” (Bayer Intellectual Property GmbH, priority 2009, dated 2014).

What follows are compounds tested against T1, human kinase Mps-1 (Homo sapiens, UniProt P33981) (assay: Mps-1 kinase assay (HTRF)). Details: lowATP; mean; read-out: Mps1 lowATP mean IC50.
T1 construct: N-terminally GST-tagged human full length recombinant Mps-1 kinase; purchased Invitrogen, Karslruhe, Germany PV4071
T1 sequence (P33981 1-857): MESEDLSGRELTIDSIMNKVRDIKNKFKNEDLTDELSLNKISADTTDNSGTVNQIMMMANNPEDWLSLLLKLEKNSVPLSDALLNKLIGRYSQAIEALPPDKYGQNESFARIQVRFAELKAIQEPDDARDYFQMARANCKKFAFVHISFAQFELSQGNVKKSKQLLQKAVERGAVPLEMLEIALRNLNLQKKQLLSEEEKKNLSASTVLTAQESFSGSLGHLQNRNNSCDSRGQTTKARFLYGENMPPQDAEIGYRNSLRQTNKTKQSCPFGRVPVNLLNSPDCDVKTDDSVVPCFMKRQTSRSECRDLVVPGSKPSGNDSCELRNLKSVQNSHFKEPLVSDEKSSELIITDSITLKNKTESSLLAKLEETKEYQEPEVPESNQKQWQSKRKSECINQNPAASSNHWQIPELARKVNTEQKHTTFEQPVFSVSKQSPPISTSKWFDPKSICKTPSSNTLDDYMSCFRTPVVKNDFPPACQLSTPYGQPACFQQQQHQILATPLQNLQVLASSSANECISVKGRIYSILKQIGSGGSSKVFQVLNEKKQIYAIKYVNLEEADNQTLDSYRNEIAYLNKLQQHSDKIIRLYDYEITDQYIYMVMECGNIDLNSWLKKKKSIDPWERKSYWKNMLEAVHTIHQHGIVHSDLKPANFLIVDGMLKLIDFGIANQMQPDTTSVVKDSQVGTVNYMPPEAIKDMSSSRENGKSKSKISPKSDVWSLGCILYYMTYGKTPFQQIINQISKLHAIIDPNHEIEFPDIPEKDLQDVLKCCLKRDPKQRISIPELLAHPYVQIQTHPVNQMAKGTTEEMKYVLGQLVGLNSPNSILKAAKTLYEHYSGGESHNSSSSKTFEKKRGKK
Type: biochemical
Method in brief: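 HTRF readout: EDTA-stopped reactions incubated 1 h with europium anti-phospho(Ser/Thr) antibody and streptavidin-XLent, emission ratio 665/620 nm after 350 nm excitation. Kinase step: compound pre-bound 15 min to ~1 nM GST-Mps-1, then 60 min at 22 °C with ATP and biotin-peptide substrate; inhibition scaled between no-inhibitor (0%) and no-enzyme (100%) controls.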

SMILES | IC50 [nM]
COCCCNc1nc2cc(C)c(C)cc2n2c(-c3ccc(C(=O)NC4CC4)c(Cl)c3)cnc12 [Example 2-196, 2-chloro-N-cyclopropyl-4-{4-[(3-methoxypropyl)amino]-7,8-dimethylimidazo[1,2-a]quinoxalin-1-yl}benzamide] | 140
Cc1cc2nc(NCCCNC(=O)OC(C)(C)C)c3ncc(-c4ccc(C(=O)NC5CC5)c(Cl)c4)n3c2cc1C [Example 2-197, tert-butyl [3-({1-[3-chloro-4-(cyclopropylcarbamoyl)phenyl]-7,8-dimethylimidazo[1,2-a]quinoxalin-4-yl}amino)propyl]carbamate] | 50.5
Cc1cc2nc(NCc3ccn(C)n3)c3ncc(-c4ccc(C(=O)NC5CC5)c(Cl)c4)n3c2cc1C [Example 2-198, 2-chloro-N-cyclopropyl-4-(7,8-dimethyl-4-{[(1-methyl-1H-pyrazol-3-yl)methyl]amino}imidazo[1,2-a]quinoxalin-1-yl)benzamide] | 127
Cc1cc2nc(NCc3ccnn3C)c3ncc(-c4ccc(C(=O)NC5CC5)c(Cl)c4)n3c2cc1C [Example 2-199, 2-chloro-N-cyclopropyl-4-(7,8-dimethyl-4-{[(1-methyl-1H-pyrazol-5-yl)methyl]amino}imidazo[1,2-a]quinoxalin-1-yl)benzamide] | 25.9
Cc1cc2nc(NCc3cnn(C)c3)c3ncc(-c4ccc(C(=O)NC5CC5)c(Cl)c4)n3c2cc1C [Example 2-200, 2-chloro-N-cyclopropyl-4-(7,8-dimethyl-4-{[(1-methyl-1H-pyrazol-4-yl)methyl]amino}imidazo[1,2-a]quinoxalin-1-yl)benzamide] | 67.6
Cc1cc2nc(NCCS(N)(=O)=O)c3ncc(-c4ccc(C(=O)NC5CC5)c(Cl)c4)n3c2cc1C [Example 2-201, 2-chloro-N-cyclopropyl-4-{7,8-dimethyl-4-[(2-sulfamoylethyl)amino]imidazo[1,2-a]quinoxalin-1-yl}benzamide] | 62.3
Cc1cc2nc(NCC(O)CO)c3ncc(-c4ccc(C(=O)NC5CC5)c(Cl)c4)n3c2cc1C (stereo not drawn) [Example 2-202, 2-chloro-N-cyclopropyl-4-{4-[(2,3-dihydroxypropyl)amino]-7,8-dimethylimidazo[1,2-a]quinoxalin-1-yl}benzamide] | 335
CCCNc1nc2cc(C#N)ccc2n2c(-c3ccc(C(=O)NC4CC4)cc3)cnc12 [Example 2-203, 4-[7-cyano-4-(propylamino)imidazo[1,2-a]quinoxalin-1-yl]-N-cyclopropylbenzamide] | 11.1
N#Cc1ccc2c(c1)nc(NCCO)c1ncc(-c3ccc(C(=O)NC4CC4)cc3)n12 [Example 2-204, 4-{7-cyano-4-[(2-hydroxyethyl)amino]imidazo[1,2-a]quinoxalin-1-yl}-N-cyclopropylbenzamide] | 77.6
N#Cc1ccc2c(c1)nc(NCCCN1CCOCC1)c1ncc(-c3ccc(C(=O)NC4CC4)cc3)n12 [Example 2-205, 4-(7-cyano-4-{[3-(morpholin-4-yl)propyl]amino}imidazo[1,2-a]quinoxalin-1-yl)-N-cyclopropylbenzamide] | 413
N#Cc1ccc2c(c1)nc(NCc1cccc(F)c1)c1ncc(-c3ccc(C(=O)NC4CC4)cc3)n12 [Example 2-206, 4-{7-cyano-4-[(3-fluorobenzyl)amino]imidazo[1,2-a]quinoxalin-1-yl}-N-cyclopropylbenzamide] | 50.7
N#Cc1ccc2c(c1)nc(NCCCN1CCCC1=O)c1ncc(-c3ccc(C(=O)NC4CC4)cc3)n12 [Example 2-207, 4-(7-cyano-4-{[3-(2-oxopyrrolidin-1-yl)propyl]amino}imidazo[1,2-a]quinoxalin-1-yl)-N-cyclopropylbenzamide] | 195
COCCNc1nc2cc(C#N)ccc2n2c(-c3ccc(C(=O)NC4CC4)cc3)cnc12 [Example 2-208, 4-{7-cyano-4-[(2-methoxyethyl)amino]imidazo[1,2-a]quinoxalin-1-yl}-N-cyclopropylbenzamide] | 79.5
N#Cc1ccc2c(c1)nc(NCC(F)(F)F)c1ncc(-c3ccc(C(=O)NC4CC4)cc3)n12 [Example 2-209, 4-{7-cyano-4-[(2,2,2-trifluoroethyl)amino]imidazo[1,2-a]quinoxalin-1-yl}-N-cyclopropylbenzamide] | 28.9
CCNc1nc2cc(C#N)ccc2n2c(-c3ccc(C(=O)NC4CC4)cc3)cnc12 [Example 2-210, 4-[7-cyano-4-(ethylamino)imidazo[1,2-a]quinoxalin-1-yl]-N-cyclopropylbenzamide] | 35.9
N#Cc1ccc2c(c1)nc(NCCCO)c1ncc(-c3ccc(C(=O)NC4CC4)cc3)n12 [Example 2-211, 4-{7-cyano-4-[(3-hydroxypropyl)amino]imidazo[1,2-a]quinoxalin-1-yl}-N-cyclopropylbenzamide] | 32.9
CCCCNc1nc2cc(C#N)ccc2n2c(-c3ccc(C(=O)NC4CC4)cc3)cnc12 [Example 2-212, 4-[4-(butylamino)-7-cyanoimidazo[1,2-a]quinoxalin-1-yl]-N-cyclopropylbenzamide] | 10
N#Cc1ccc2c(c1)nc(NCc1ccccn1)c1ncc(-c3ccc(C(=O)NC4CC4)cc3)n12 [Example 2-213, 4-{7-cyano-4-[(pyridin-2-ylmethyl)amino]imidazo[1,2-a]quinoxalin-1-yl}-N-cyclopropylbenzamide] | 106
N#Cc1ccc2c(c1)nc(NCc1cccnc1)c1ncc(-c3ccc(C(=O)NC4CC4)cc3)n12 [Example 2-214, 4-{7-cyano-4-[(pyridin-3-ylmethyl)amino]imidazo[1,2-a]quinoxalin-1-yl}-N-cyclopropylbenzamide] | 28.8
N#Cc1ccc2c(c1)nc(NCc1ccco1)c1ncc(-c3ccc(C(=O)NC4CC4)cc3)n12 [Example 2-215, 4-{7-cyano-4-[(furan-2-ylmethyl)amino]imidazo[1,2-a]quinoxalin-1-yl}-N-cyclopropylbenzamide] | 24.8
CC(C)CNc1nc2cc(C#N)ccc2n2c(-c3ccc(C(=O)NC4CC4)cc3)cnc12 [Example 2-216, 4-{7-cyano-4-[(2-methylpropyl)amino]imidazo[1,2-a]quinoxalin-1-yl}-N-cyclopropylbenzamide] | 9.56
N#Cc1ccc2c(c1)nc(NCCC(N)=O)c1ncc(-c3ccc(C(=O)NC4CC4)cc3)n12 [Example 2-217, 4-{4-[(3-amino-3-oxopropyl)amino]-7-cyanoimidazo[1,2-a]quinoxalin-1-yl}-N-cyclopropylbenzamide] | 140
COCCCNc1nc2cc(C#N)ccc2n2c(-c3ccc(C(=O)NC4CC4)cc3)cnc12 [Example 2-218, 4-{7-cyano-4-[(3-methoxypropyl)amino]imidazo[1,2-a]quinoxalin-1-yl}-N-cyclopropylbenzamide] | 50.7
Cn1ccc(CNc2nc3cc(C#N)ccc3n3c(-c4ccc(C(=O)NC5CC5)cc4)cnc23)n1 [Example 2-219, 4-(7-cyano-4-{[(1-methyl-1H-pyrazol-3-yl)methyl]amino}imidazo[1,2-a]quinoxalin-1-yl)-N-cyclopropylbenzamide] | 59.6
Cn1nccc1CNc1nc2cc(C#N)ccc2n2c(-c3ccc(C(=O)NC4CC4)cc3)cnc12 [Example 2-220, 4-(7-cyano-4-{[(1-methyl-1H-pyrazol-5-yl)methyl]amino}imidazo[1,2-a]quinoxalin-1-yl)-N-cyclopropylbenzamide] | 15.6
Cn1cc(CNc2nc3cc(C#N)ccc3n3c(-c4ccc(C(=O)NC5CC5)cc4)cnc23)cn1 [Example 2-221, 4-(7-cyano-4-{[(1-methyl-1H-pyrazol-4-yl)methyl]amino}imidazo[1,2-a]quinoxalin-1-yl)-N-cyclopropylbenzamide] | 67.1
N#Cc1ccc2c(c1)nc(NCC(O)CO)c1ncc(-c3ccc(C(=O)NC4CC4)cc3)n12 (stereo not drawn) [Example 2-222, 4-{7-cyano-4-[(2,3-dihydroxypropyl)amino]imidazo[1,2-a]quinoxalin-1-yl}-N-cyclopropylbenzamide] | 127
CNC(=O)Nc1ccc(-c2cnc3c(NCCO)nc4cc(C#N)ccc4n23)cc1 [Example 2-223, 1-(4-{7-cyano-4-[(2-hydroxyethyl)amino]imidazo[1,2-a]quinoxalin-1-yl}phenyl)-3-methylurea] | 4320
CNC(=O)Nc1ccc(-c2cnc3c(NCCC(C)C)nc4cc(C#N)ccc4n23)cc1 [Example 2-224, 1-(4-{7-cyano-4-[(3-methylbutyl)amino]imidazo[1,2-a]quinoxalin-1-yl}phenyl)-3-methylurea] | 3290
CNC(=O)Nc1ccc(-c2cnc3c(NCCCN4CCCC4=O)nc4cc(C#N)ccc4n23)cc1 [Example 2-225, 1-[4-(7-cyano-4-{[3-(2-oxopyrrolidin-1-yl)propyl]amino}imidazo[1,2-a]quinoxalin-1-yl)phenyl]-3-methylurea] | 8110
